Earlier results as cited in patent EP2508186A1, “Phenoxazinones or phenothiazones as inhibitors of amyloid formation” (Max-Delbrück-Centrum für Molekulare Medizin, priority 2011, dated 2012).

Target: T1, Aβ42 (Homo sapiens, UniProt P05067)
T1 construct: the amyloid-β 1-42 (Aβ42) peptide
Details: previous biochemical investigations; cited from earlier work

T1 sequence (P05067 672-713 limits assumed): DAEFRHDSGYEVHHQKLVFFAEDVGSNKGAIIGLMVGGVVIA

For CN(C)c1ccc2nc3ccc(=[N+](C)C)cc-3sc2c1 [methylene blue], the “effect on Aβ42 fibrillogenesis and A11-reactive oligomers” value is listed as “promotes Aβ42 fibrillogenesis and thereby reduces the amount of A11-reactive, potentially toxic amyloid oligomers”.
